{"source": "patent US8883856B2", "about": "“Compositions and methods for the treatment of inflammatory diseases using topoisomerase inhibitors” (priority 2000, dated 2014)", "key": {"[1]": {"tested_on": "neutrophils", "assay": "Neutrophil degranulation (myeloperoxidase release)", "format": "cell-based, human", "settings": "CPPD crystals and fMLP", "procedure": "Eppendorf tubes containing either 25 mg of CPPD or 1 uM fMLP (with 0.5 uM cytochalasin B) were maintained at 37° C. To the tubes were added 0.5 mL of cells at 37° C. followed by shaking to initiate the reactions. At appropriate times, tubes were centrifuged at 10,000× g for 10 s and 0.4 mL of supernatant was stored at −20° C. for later assay. Myeloperoxidase (MPO) activity was measured by the increase in absorbance at 450 nm that accompanies the oxidation of o-dianisidine. Dianisidine (7.8 mg) was dissolved in 100 mL of 0.1 M citrate buffer, pH 5.5 and to a 1 mL cuvette were added 0.89 mL of the dianisidine solution, followed by […], […] and […]. MPO activity was determined from the change in absorbance (450 nm) per minute, (ΔA450), using the following relationship: Dianisidine oxidation (nmol/min)=50 ΔA450"}, "[2]": {"tested_on": "neutrophils", "assay": "Neutrophil superoxide anion generation (cytochrome c reduction)", "format": "cell-based, human", "settings": "CPPD crystals or fMLP", "procedure": "Superoxide anion concentrations were measured using the superoxide dismutase inhibitable reduction of cytochrome c assay. Twenty five mg of crystals or fMLP (final concentration 1 uM with cytochalasin B at 0.5 uM) were placed in 1.5 mL capped Eppendorf tubes and warmed to 37° C. To the tubes were added 0.5 mL of cells at 37° C. and ferricytochrome c (horse heart, type 3) (final concentration 1.2 mg/mL) and the cells were activated by shaking the capped tubes. At appropriate times, tubes were centrifuged at 10,000×g for 10 seconds and the supernatant collected for spectrophotometric assay at 550 nm. Control tubes were set up under the same conditions with the inclusion of superoxide dismutase at 600 units per mL. Plumbagin inhibited the generation of superoxide anions from neutrophils activated by both CPPD crystals or fMLP as shown in FIG. 3."}, "[3]": {"tested_on": "neutrophils", "assay": "Neutrophil apoptosis, agarose gel DNA laddering", "format": "cell-based, human", "from_the_text": "The inflammation associated with many forms of arthritis is thought to arise from the presence of large numbers of immune cells, such as neutrophils, in the synovial joints of humans. The extended inflammation associated with crystal induced arthritis arises from the interaction of neutrophils with crystals in the synovial joint. One reason the extended duration of the inflammation in this disease may be due to the inhibition of neutrophil apoptosis by crystals. This inhibition may result in the neutrophils remaining in the joint for extended periods. Compounds that overcome this crystal induced suppression of neutrophil apoptosis therefore allow the more rapid clearance of these cells from the joint with the appropriate abatement of inflammation. The process of apoptosis involves the endonuclease driven cleavage of DNA into fragments which may be visualized as a ladder of bands in an agarose gel electrophoresis experiment. Other assays that may be used include caspase 3 quantitation or measurements of cytoplasmic DNA concentration. […] Agents that inhibit caspase activation levels or reduce cytoplasmic DNA are pro-survival (potentially inflammatory) and agents that promote are pro-apoptotic and anti-inflammatory. The use of these methods and their role in neutrophil affected inflammation is described in detail in Tudan et al. J Rheumatol. 27 p 2463-72. 2000. […]"}, "[4]": {"assay": "Perivascular injection of polymeric paste at the rat carotid artery", "format": "in vivo, Wistar rats", "settings": "1% loading in 40% Triblock / 60% MePEG350 paste, 0.1 to 0.2 ml", "from_the_text": "Wistar rats weighing 400 g to 500 g were anesthetized with halothane. A vertical incision was made over the trachea and the left external carotid artery was exposed. Connective tissue around the left common carotid artery was left untouched. Two ligatures were placed around the external carotid artery and an arteriotomy was made between them. A 2 French Fogarty balloon was introduced into the external carotid artery and pushed into the left common carotid artery and the balloon was inflated with saline. The balloon was passed up and down the entire length of the carotid artery three times to stretch the vessel and denude the endothelium. The balloon was removed and the ligatures tied off on the external carotid artery. Camptothecin (1% loading) in a polymeric paste (40% Triblock (Angiotech pharmaceuticals) and 60% Methoxypolyethylene glycol (MePEG350)) or the carrier paste alone was injected through a 24 G angiocatheter between a distal segment of the common carotid artery and the surrounding connective tissue. Typically, 0.1 to 0.2 ml of paste was applied around the artery in 4 injections in order to cover the whole circumference of the vessel on a length of approximately 1 cm. The wound was then closed and the animals recovered."}}, "data": [{"smiles": "CC1=CC(=O)c2c(O)cccc2C1=O", "note": "[plumbagin]", "values": [{"measurement": "neutrophil degranulation (myeloperoxidase release)", "setting": "[1]", "value": "inhibited"}, {"measurement": "generation of superoxide anions from activated neutrophils", "setting": "[2]", "value": "inhibited"}]}, {"smiles": "CC[C@@]1(O)C(=O)OCc2c1cc1n(c2=O)Cc2cc3ccccc3nc2-1", "note": "[camptothecin]", "values": [{"measurement": "apoptosis in neutrophils first incubated with CPPD crystals", "setting": "[3]; CPPD crystals 1 hour, then drug 0.1 uM 4 hours", "value": "extensive apoptosis"}, {"measurement": "DNA laddering (apoptosis) in neutrophils", "setting": "[3]; drug alone, 0.1 uM, 4 hours", "value": "extensive DNA laddering"}, {"measurement": "adverse effects of perivascular paste injection", "setting": "[4]", "value": "no adverse effects noted in any animal"}]}]}
